{
  "source": "patent US20090215708A1",
  "about": "“Treatment of Sexual Dysfunction with Proton Pump Agonists” (priority 2008, published 2009)",
  "key": {"[1]": {"tested_on": "subject with sexual dysfunction related to penis size below the 10th percentile", "test": "Daily oral cinchomeronic acid in a subject with penis size below the 10th percentile", "format": "in vivo, human", "excerpt": "A subject who has reported long-term sexual dysfunction related to a penis size below the 10th percentile is given an oral formulation of cinchomeronic acid, at a daily dose sufficient to maintain therapeutic blood levels of the agent."}, "[2]": {"tested_on": "proton pump (plasma membrane H+ ATPases)", "details": "plants; cited from earlier work"}, "[3]": {"tested_on": "subject diagnosed with Female Sexual Arousal Disorder (FSAD)", "test": "Daily oral fusicoccin in a subject with Female Sexual Arousal Disorder", "format": "in vivo, human", "details": "daily oral formulation", "excerpt": "A subject who has been diagnosed with Female Sexual Arousal Disorder (FSAD) for over 6 months is given a daily oral formulation of fusicoccin, at a dose sufficient to maintain therapeutic blood levels of the agent. […] The use of this preparation is well accepted by both the subject and partner."}},
  "data": [
    {"compound": "O=C(O)c1ccncc1C(=O)O", "note": "[cinchomeronic acid, 3,4-dicarboxypyridine]", "values": [
      {"measurement": "adverse side effects", "setting": "[1]", "result": "no adverse side effects"},
      {"measurement": "penile circumference and length compared to before treatment", "setting": "[1]; two months after beginning treatment", "result": "measurable increase"}
    ]},
    {"compound": "C=CC(C)(C)OC[C@H]1O[C@H](O[C@@H]2C3=C([C@H](C)COC(C)=O)C[C@H](O)[C@]3(C)/C=C3/[C@@H](COC)CC[C@H]3[C@@H](C)[C@H]2O)[C@H](O)[C@@H](OC(C)=O)[C@@H]1O", "note": "[fusicoccin]", "values": [
      {"measurement": "proton pumping across the plasma membrane", "setting": "[2]", "result": "activate"},
      {"measurement": "adverse side effects", "setting": "[3]", "result": "without adverse side effects"},
      {"measurement": "symptoms, including lubrication-swelling response during sexual activity", "setting": "[3]; one week after beginning treatment", "result": "significant improvement in symptoms"}
    ]}
  ]
}
